Assay results reported in US11634381B2, “RUNX2 transcription factor inhibitors and uses thereof” (University of Maryland, Baltimore, priority 2015, dated 2023).

Experiments:
Format in all cases: cell-based, human
[1] = tested on: TAZ; assay: Nuclear TAZ levels by Western blot
Procedure: (§1) MCF7 cells were grown to subconfluence in the presence or absence of doxycycline for 72 hr in full media as described above. Cells were then treated in minimal DMEM (Sigma, D5030) containing 0.1% BSA, 1% L-glutamine, 2% Tet-Approved FBS, and 1 mM glucose for 16 hours followed by treatment with 2 ng/mL TGFβ (R&D Systems, 240-B-002) for 48 hours in the presence or absence of EGTA to examine sE-Cad expression levels, TAZ localization, and HER2 expression levels. Cells were washed with PBS and scraped from plates. Cytoplasmic and nuclear lysates were obtained using the Low/High Salt extraction method. Cytoplasmic extracts were obtained by resuspending cells in NP40 containing Hypotonic Buffer (10 mM HEPES pH 7.4, 1.5 mM MgCl2, 10 mM KCI, 0.5% NP40) followed by a 30 min incubation on ice and centrifiugation. Nuclear extracts were obtained by resuspending the nuclear pellet in an equal volume of low salt buffer (10 mM HEPES, 25% glycerol, 1.5 mM MgCl2, 20 mM KCI, 0.2 mM EDTA) followed by high salt buffer (10 mM HEPES, 25% glycerol, 1.5 mM MgCl2, 800 mM KCl, 0.2 mM EDTA) followed by vortexing, 30 min incubation on ice, another vortex, and centrifugation. Samples were resolved on 4-12% Bis-Tris polyacrylamide gradient gels (Invitrogen) and transferred to PVDF membranes (Millipore). Membranes were probed with antibodies listed below followed by development with enhanced ECL (Millipore). […] Protein levels were normalized to actin and quantified using NIH Image-J software.
(§2) MCF7 Tet.OFF cells were pretreated in the absence or presence of doxycycline for 3 days. […] Nuclear and cytoplasmic extracts were obtained using High/Low salt extraction method and protein levels analyzed by Western blot (see above).

[2] = tested on: sE-Cad; assay: sE-Cad production by Western blot
Procedure: as §1, with “(Millipore).” for “(Millipore). Membranes were probed with antibodies listed below followed by development with enhanced ECL (Millipore).”
To assay for sE-Cad levels, MCF7 Tet.OFF cells were grown in the absence or presence of doxycycline for 3 days and then transfected with TAZ siRNA #1 using Lipofectamine-2000. […] After 72 hours, nuclear and cytoplasmic extracts were obtained using the High/Low salt extraction method described above and analyzed for sE-Cad, TAZ, and RUNX2. Protein levels were normalized to actin and quantified using NIH Image-J software.
as §2

[3] = tested on: PDH; assay: PDH enzymatic activity microtiter plate assay; conditions: MDA-MB-468 and MCF7, 50 μM
Procedure: In FIG. 23A PDH enzymatic activity was determined in doxycycline-responsive MCF7-tet-off (left) and Hs578t-Control or RUNX2 KD cells (right) or non-targeting control siRNA (NTC=RUNX2+) versus RUNX2 KD (55.5 cells=RUNX2 KD) using an antibody-specific microtiter plate assay. Results are expressed as the change in Absorbance at 450 nm per minute per mg protein (ΔmOD450/min/mg) (*p<0.05). In FIG. 23B PDH activity was determined in MDA-MB-468 (left) and MCF7 (right) BC cell lines with or without compound 1 treatment (50 μM) for the indicated time period.

[4] = tested on: MDA-231 cells; assay: Cell-electrode impedance invasion assay (xCELLigence); conditions: MDA-231, 50 μM, 48 hrs
Procedure: Real-time monitoring of cellular invasion was examined using an electrical impedance assay with an xCELLigence RTCA SP real-time cell-sensing device (Roche Applied Science). Matrigel (20 μl of 0.5 mg/ml) was pre-coated in the upper chamber of CIM plates and polymerized for 4 h and MDA-231 cells (75,000) were seeded onto wells containing growth medium with vehicle (0.1% DMSO) or compound 1 (50 μM). Impedance-based signals were measured every 5 minutes for 48 hrs according to the manufacturer's instructions. The invasive activity is expressed as the cell index (mean±SD) of duplicate wells. Three independent experiments were performed. In parallel, MDA-231 cells were plated onto wells with serum-free medium and the assay was performed.

[5] = tested on: RUNX2; assay: Western blot of RUNX2, RUNX1, CBF-β; conditions: for CBF-β levels: MDA-231, MDA-468 and MCF7 cells
Procedure: Whole cell lysates extracted in RIPA buffer (Upstate) were separated on 4-12% gradient SDS-PAGE and transferred to nitrocellulose membrane. The blots were incubated with specific antibodies for each protein overnight at 4° C. After antibody washing, the blots were reacted with their respective secondary antibody and detected with enhanced chemiluminescence reagents (Millipore) according to the supplier's protocol. Antibodies for proteins were purchased as below. RUNX1, RUNX2, CBF-β, ubiquitin and caspase-3 (Cell Signaling Technologies), S451-p-RUNX2 (Bioss Gentaur, Belgium), RUNX3 and Glut-1 (Millipore, Calif.), β-actin and RUNX2 antibody for IHC (Sigma-Aldrich), and Ki-67 for IHC (Bethyl Laboratories, Inc, TX).

## O=C(O)C1C2C=CC(C2)C1C(=O)Nc1ccc(Cl)c(Cl)c1 (centres unmarked) [compound 1, 3-(N-(3,4-dichlorophenyl)carbamoyl)-5-norbornene-2-carboxylic acid]
[1]; HCC1428 cells expressing endogenous RUNX2
  reduction in nuclear TAZ levels compared to vehicle: 80%
[1]; RUNX2 negative cells (doxycycline +), over 72 hr
  nuclear TAZ levels: no affect
[1]; RUNX2 positive MCF7 cells (doxycycline -), 50 μM, within 24 hr
  TAZ nuclear levels: lowered
[2]; RUNX2 negative cells (doxycycline+)
  decrease in sE-Cad production: 2 fold
[2]; RUNX2 positive cells, 50 μM, by 72 hr
  decline of sE-Cad levels: ~20 fold
[2]; RUNX2 positive cells, 50 μM, first 24 hr
  increase of sE-Cad production: 3.5 fold
[3]
  PDH activity: increases PDH activity
[4]
  cell index (mean±SD): 1.6636±0.1845
[5]; 6 hrs
  CBF-β levels: increased
[5]; after 24 hrs
  CBF-β levels: decreased
[5]; T47D-RUNX2 and MCF7-RUNX2 cells, 50 μM, 72 hrs
  mRNA and protein expression of RUNX2: further enhanced
[5]; ectopic RUNX2 T47D and MCF7 cells, 50 μM, 72 hrs
  CBF-β level: reduced
[5]; in the presence of CHX
  stability of RUNX1 or of CBF-β: not increased
[5]; most BC cells
  RUNX1 protein levels: not altered
